{"source": "patent US11555179B2", "about": "“Identification of subpopulations of cardiomyocytes” (The University of Hong Kong, priority 2019, dated 2023)", "key": {"hPSC-CMs": {"system": "hPSC-CMs", "settings": "unsorted hPSC-CMs as currently utilized; cited from earlier work"}, "[1]": {"settings": "in vivo; cited from earlier work"}, "mouse models of DCT": {"system": "mouse models of DCT", "settings": "in vivo; cited from earlier work"}, "CD36^+ hESC-CMs": {"system": "CD36^+ hESC-CMs", "assay": "Doxorubicin-induced cardiotoxicity (XTT viability, TMRE/MTG Δψm)", "type": "cell-based, human", "settings": "for effect on cell viability upon dox treatment (XTT): pre-treatment (NAC 1 mM, 1 hr), FIGS. 5I-K show mixed, CD36^+ and CD36^− hESC-CMs", "procedure": "FIGS. 5A and 5B are bar graphs showing the normalized levels of cell viability (A) and mitochondrial membrane potential Δψm (B) of mixed (unsorted) hESC-CMs, CD36^+ hESC-CMs, and CD36^− hESC-CMs after exposure to doxorubicin (dox). The hESC-CMs were treated with 1 mM dox for 24 hrs. Cell viability and mitochondrial membrane potential Δψm were determined by the XTT and TMRE/MTG assays (n=9 and 7), respectively, and normalized to untreated hESC-CMs.\n(C) and (D): viability and Δψm for unsorted hESC-CMs; (E) and (F): viability and Δψm for CD36^+ hESC-CMs; (G) and (H): viability and Δψm for CD36^− hESC-CMs. The cells in the “Dox” groups were treated with 1 mM dox for 24 hrs; the cells in the “Dox+DRZ” groups were pre-treated with […] DRZ for 1 hr, followed by co-treatment with 1 mM dox for 24 hrs. Cell viability and mitochondrial membrane potential Δψm were determined by the XTT and TMRE/MTG assays (n=7 and 9), respectively, and normalized to untreated hESC-CMs (i.e., the “Control” groups). *p<0.05, **p<0.01, ***p<0.001.\nThe cells in the “Dox” groups were treated with 1 mM dox for 24 hrs; the cells in the “Dox+NAC” groups were pre-treated with 1 mM NAC for 1 hr, followed by co-treatment with 1 mM dox for 24 hrs. Cell viability was determined by the XTT assay (n=4) and normalized to untreated cells (i.e., the “Control” groups)."}, "[2]": {"settings": "dexrazoxane-treated pediatric patients, two randomized studies; cited from earlier work"}, "[3]": {"settings": "doses exceeding 550 mg/m^2; cited from earlier work"}, "[4]": {"system": "CD172A^+/CD36^+/− hESC-CMs", "settings": "100 μM hydrogen peroxide for 30 min", "procedure": "(§1) FIGS. 4A-4D are bar graphs showing the relative levels of mitochondrial superoxide (A), mitochondrial membrane potential Δψm (B), nuclear condensation (C), and cell viability (D) in CD172A^+/CD36^+/−, CD172A^+/CD36^+, and CD172A^+/CD36^− hECS-CMs after exposure to 100 μM hydrogen peroxide for 30 min. The relative levels of mitochondrial superoxide, mitochondrial membrane potential, nuclear condensation, and cell viability were determined using the MitoSOX™ red dye (n=5), TMRE staining (n=5, calibrated by mitochondrial mass based on the result of MTG staining), Hoechst staining (n=5), and PrestoBlue® staining (n=9), respectively. *p<0.05, **p<0.01, ***p<0.001.\n(§2) The responses of mitochondrial function to oxidative stress were examined in subpopulations of hESC-CMs."}, "CD172A^+/CD36^+ hESC-CMs [5]": {"system": "CD172A^+/CD36^+ hESC-CMs", "settings": "100 μM hydrogen peroxide for 30 min", "procedure": "as §1, §2"}, "CD172A^+/CD36^− hESC-CMs [6]": {"system": "CD172A^+/CD36^− hESC-CMs", "settings": "100 μM hydrogen peroxide for 30 min", "procedure": "as §1, §2"}, "CD172A^+/CD36^+ hESC-CMs [7]": {"system": "CD172A^+/CD36^+ hESC-CMs", "assay": "Mitochondrial membrane potential (TMRE) with oleic acid supplementation", "type": "cell-based, human", "settings": "nutrient-deficient media lacking fatty acids, plus oleic acid, FIG. 3B", "procedure": "(§3) FIG. 3A is a bar graph showing the uptake of fatty acid (FA) by C[…]^+/CD36^+ (black) and C[…]^+/CD36^- (white) hESC-CMs. The FA uptake assay was performed using a BODIPY-labeled C16 palmitate analog (n=6). FIG. 3B is a bar graph showing the relative levels of mitochondrial membrane potential Δψm in C[…]^+/CD36^+ and C[…]^+/CD36^- hESC-CMs cultured in the absence (black) and presence (gray) of oleic acid (n=5). […] In addition to enhanced mitochondrial output, adult CMs were characterized by their preference for fatty acid as fuel for energy production. In CMs, CD36 functions as a fatty acid translocase to facilitate the uptake of long-chain fatty acids such as palmitic and oleic acids, thus increased level of this protein is expected to enhance fatty acid entry into cells. […] Additional experiments were performed to test whether increased fatty acid uptake led to increased metabolic output. When cultured in nutrient-deficient media lacking fatty acids, C[…]^+/CD36^+ and C[…]^+/CD36^- CMs had similar Δψm."}, "CD172A^+/CD36^− hESC-CMs [8]": {"system": "CD172A^+/CD36^− hESC-CMs", "assay": "Mitochondrial membrane potential (TMRE) with oleic acid supplementation", "type": "cell-based, human", "settings": "nutrient-deficient media lacking fatty acids, plus oleic acid, FIG. 3B", "procedure": "as §3"}, "[9]": {"settings": "then co-treatment with 1 mM dox 24 hrs"}}, "data": [{"compound": "CC(=O)N[C@@H](CS)C(=O)O", "note": "[N-acetylcysteine]", "values": [{"measurement": "protection of hPSC-CMs against DCT", "setting": "hPSC-CMs", "result": "rescued"}, {"measurement": "outcome in clinical trials (DCT)", "setting": "[1]", "result": "unsuccessful"}, {"measurement": "efficacy in mouse models of DCT", "setting": "mouse models of DCT", "result": "effective"}, {"measurement": "effect on cell viability upon dox treatment (XTT)", "setting": "CD36^+ hESC-CMs; [9]", "result": "did not increase cell viability"}]}, {"compound": "C[C@@H](CN1CC(=O)NC(=O)C1)N1CC(=O)NC(=O)C1", "note": "[dexrazoxane]", "values": [{"measurement": "protection of hPSC-CMs against DCT", "setting": "hPSC-CMs", "result": "failed to protect"}, {"measurement": "incidence of second primary malignancies (myelodysplastic syndrome and acute myeloid leukemia)", "setting": "[2]", "result": "threefold increase"}, {"measurement": "protective effect against DCT (viability and Δψm)", "setting": "CD36^+ hESC-CMs; 200 mM DRZ pre-treatment 1 hr, then co-treatment with 1 mM dox 24 hrs, CD36^+ hESC-CMs, FIGS. 5E, 5F", "result": "responded to the protective effect"}]}, {"compound": "COc1cccc2c1C(=O)c1c(O)c3c(c(O)c1C2=O)C[C@@](O)(C(=O)CO)C[C@@H]3O[C@H]1C[C@H](N)[C@H](O)[C@H](C)O1", "note": "[dox, Doxorubicin]", "values": [{"measurement": "incidence of congestive heart failure", "setting": "[3]", "result": "exceeds 30%"}, {"measurement": "cell viability upon dox treatment (XTT)", "setting": "CD36^+ hESC-CMs; 1 mM dox for 24 hrs, CD36^+ hESC-CMs compared to mixed (unsorted) or CD36^− CMs, FIG. 5A", "result": "more severe decrease"}, {"measurement": "mitochondrial membrane potential (Δψm) upon dox treatment (TMRE/MTG)", "setting": "CD36^+ hESC-CMs; 1 mM dox for 24 hrs, CD36^+ hESC-CMs compared to mixed (unsorted) or CD36^− CMs, FIG. 5B", "result": "more severe decrease"}, {"measurement": "onset of dox-induced cell degeneration", "setting": "CD36^+ hESC-CMs; CD36^+ hESC-CMs compared to mixed (unsorted) or CD36^− CMs", "result": "accelerated onset"}]}, {"compound": "OO", "note": "[hydrogen peroxide]", "values": [{"measurement": "mitochondrial superoxide (MitoSOX red dye)", "setting": "[4]; FIG. 4A", "result": "2.2±0.4", "unit": "fold"}, {"measurement": "relative mitochondrial membrane potential Δψm (TMRE, calibrated by MTG)", "setting": "[4]; FIG. 4B", "result": "0.30±0.03"}, {"measurement": "nuclear condensation (Hoechst staining)", "setting": "[4]; FIG. 4C", "result": "46±15", "unit": "%"}, {"measurement": "mitochondrial superoxide (MitoSOX red dye)", "setting": "CD172A^+/CD36^+ hESC-CMs [5]; FIG. 4A", "result": "3.5±0.3", "unit": "fold"}, {"measurement": "relative mitochondrial membrane potential Δψm (TMRE, calibrated by MTG)", "setting": "CD172A^+/CD36^+ hESC-CMs [5]; FIG. 4B", "result": "0.17±0.03"}, {"measurement": "nuclear condensation (Hoechst staining)", "setting": "CD172A^+/CD36^+ hESC-CMs [5]; FIG. 4C", "result": "73±8", "unit": "%"}, {"measurement": "mitochondrial superoxide (MitoSOX red dye)", "setting": "CD172A^+/CD36^− hESC-CMs [6]; FIG. 4A", "result": "1.7±1.2", "unit": "fold"}, {"measurement": "relative mitochondrial membrane potential Δψm (TMRE, calibrated by MTG)", "setting": "CD172A^+/CD36^− hESC-CMs [6]; FIG. 4B", "result": "0.35±0.04"}, {"measurement": "nuclear condensation (Hoechst staining)", "setting": "CD172A^+/CD36^− hESC-CMs [6]; FIG. 4C", "result": "32%±11"}]}, {"compound": "CCCCCCCC/C=C\\CCCCCCCC(=O)O", "note": "[oleic acid]", "values": [{"measurement": "increase in magnitude of Δψm on supplementation with oleic acid", "setting": "CD172A^+/CD36^+ hESC-CMs [7]", "result": 43.0, "unit": "%"}, {"measurement": "increase in magnitude of Δψm on supplementation with oleic acid", "setting": "CD172A^+/CD36^− hESC-CMs [8]", "result": 22.9, "unit": "%"}]}, {"compound": "vitamin E", "values": [{"measurement": "effect on cell viability upon dox treatment (XTT)", "setting": "CD36^+ hESC-CMs; [9]", "result": "did not increase cell viability"}]}]}
